Counter-ions that a name gives are not always drawn.
The compounds below were run against β -galactosidase (assay: β-galactosidase inhibitory activity (colorimetric, O-nitrophenyl-β-D-galactopyranose substrate)). Settings: Test Example 1; acetate buffer pH 5.0, 37°C, 15 minutes.
Assay type: biochemical, Aspergillus sp.
Experimental: The assay of this activity was carried out by permitting β -galactosidase to act on the substrate O-nitrophenyl-β -D-galactopyranose and quantitating O-nitrophenol, which was released on hydrolysis, colorimetrically. Thus, a mixture of 0.9 ml of 100 mM acetate buffer (pH 5.0), 0.1 ml of a solution of the test substance (dissolved in 100 mM acetate buffer at pH 5.0) and 0.5 ml of a 20 mM substrate solution was previously warmed at 37°C for […] and, then, dissolved in 10 mM acetate buffer at pH 5.0. Then, 0.5 ml of a solution of β -galactosidase was added and the reaction was conducted at 37°C for 15 minutes. The absorbance (A) at 420 nm was then measured. The absorbance (B) of a reaction mixture not containing the test substance was also measured and using the equation of % inhibition = (B - A)/B x 100 [formula] , the concentration of the test substance causing 50% inhibition of β -galactosidase activity (IC₅₀) was determined. The β -galactosidase derived from Aspergillus sp. was used. It is clear that the compound of the present invention has high β -galactosidase inhibitory activity.
`CCCN1C[C@H](O)[C@@H](O)[C@@H](O)[C@H]1CO` [Example 3, N-n-propyl-1-deoxygalactostatin] gave an IC₅₀ of 44 ng/mL.
`CCCCCCCCCCCCN1C[C@H](O)[C@@H](O)[C@@H](O)[C@H]1CO` [Example 6, N-n-dodecyl-1-deoxygalactostatin] showed an IC₅₀ of 23 ng/mL.
In the case of `OC[C@@H]1[C@H](O)[C@H](O)[C@@H](O)CN1CCCc1ccccc1` [Example 7, N-(3-phenylpropyl)-1-deoxygalactostatin], the IC₅₀ is reported as 88 ng/mL.
With `OC[C@H]1NC[C@H](O)[C@@H](O)[C@H]1O` [1-deoxygalactostatin hydrochloride, reference compound] the IC₅₀ was 451 ng/mL.
`OC[C@@H]1[C@H](O)[C@H](O)[C@@H](O)CN1Cc1ccc(Cl)cc1` [Example 8, N-p-chlorobenzyl-1-deoxygalactostatin] showed an IC₅₀ of 180 ng/mL.
`OC[C@@H]1[C@H](O)[C@H](O)[C@@H](O)CN1CC=Cc1ccccc1` [Example 10, N-cinnamyl-1-deoxygalactostatin] gave an IC₅₀ of 175 ng/mL.
`C=CCN1C[C@H](O)[C@@H](O)[C@@H](O)[C@H]1CO` [Example 9, N-allyl-1-deoxygalactostatin] was tested, and the IC₅₀ was 187 ng/mL.
With `CCN1C[C@H](O)[C@@H](O)[C@@H](O)[C@H]1CO` [Example 2, N-ethyl-1-deoxygalactostatin] the IC₅₀ was 82 ng/mL.
For `CCCCCCCN1C[C@H](O)[C@@H](O)[C@@H](O)[C@H]1CO` [Example 5, N-n-heptyl-1-deoxygalacto-statin], the IC₅₀ was 32 ng/mL.
Compound `CC(C)CN1C[C@H](O)[C@@H](O)[C@@H](O)[C@H]1CO` [Example 4, N-isobutyl-1-deoxygalactostatin] has an IC₅₀ of 40 ng/mL.
`CN1C[C@H](O)[C@@H](O)[C@@H](O)[C@H]1CO` [Example 1, N-methyl-1-deoxygalactostatin] was tested, and the IC₅₀ was 15 ng/mL.

Same assay, conditions: Test Example 2; acetate buffer pH 5.0, 37°C, 15 minutes
Work on `CSc1ccc(CN2C[C@H](O)[C@@H](O)[C@@H](O)[C@H]2CO)cc1` [Example 15, N-p-methylthiobenzyl-1-deoxygalactostatin] yielded an IC₅₀ of 393 ng/mL.
With `CCCCCN1C[C@H](O)[C@@H](O)[C@@H](O)[C@H]1CO` [Example 13, N-n-pentylnyl-1-deoxygalactostatin] the IC₅₀ was 113 ng/mL.
Work on `OC[C@@H]1[C@H](O)[C@H](O)[C@@H](O)CN1CCc1ccccc1` [Example 16, N-phenylethyl-1-deoxygalactostatin] yielded an IC₅₀ of 21 ng/mL.
`OC[C@@H]1[C@H](O)[C@H](O)[C@@H](O)CN1CC1CCCCC1` [Example 20, N-cyclohexylmethyl-1-deoxygalactostatin] was tested, and the IC₅₀ was 37 ng/mL.
For `OC[C@@H](O)[C@H](O)[C@H](O)[C@@H](O)CN1C[C@H](O)[C@@H](O)[C@@H](O)[C@H]1CO` [Example 17, N-(1'-deoxygalactitoyl)-1-deoxygalactostatin], the IC₅₀ was 49 ng/mL.
`CCCCN1C[C@H](O)[C@@H](O)[C@@H](O)[C@H]1CO` [Example 23, N-n-butyl-1-deoxygalactostatin] was tested, and the IC₅₀ was 154 ng/mL.
For `COc1ccc(CN2C[C@H](O)[C@@H](O)[C@@H](O)[C@H]2CO)cc1` [Example 14, N-p-methoxybenzyl-1-deoxygalactostatin], the IC₅₀ was 391 ng/mL.
`OC[C@H]1NC[C@H](O)[C@@H](O)[C@H]1O` [1-deoxygalactostatin hydrochloride, reference compound] was tested, and the IC₅₀ was 440 ng/mL.
`CSCCCN1C[C@H](O)[C@@H](O)[C@@H](O)[C@H]1CO` [Example 21, N-(3'-methylthiopropyl)-1-deoxygalactostatin] was tested, and the IC₅₀ was 49 ng/mL.
`OC[C@@H]1[C@H](O)[C@H](O)[C@@H](O)CN1Cc1ccc(-c2ccccc2)cc1` [Example 12, N-(p-phenylbenzyl)-1-deoxygalactostatin] gave an IC₅₀ of 166 ng/mL.
`COCCN1C[C@H](O)[C@@H](O)[C@@H](O)[C@H]1CO` [Example 11, N-methoxyethyl-1-deoxygalactostatin] gave an IC₅₀ of 59 ng/mL.
For `O=C(O)CCCN1C[C@H](O)[C@@H](O)[C@@H](O)[C@H]1CO` [Example 24, N-(3-carboxypropyl)-1-deoxygalactostatin], the IC₅₀ was 351 ng/mL.
Compound `CC(=O)Nc1ccc(CN2C[C@H](O)[C@@H](O)[C@@H](O)[C@H]2CO)cc1` [Example 18, N-(p-acetamidobenzyl)-1-deoxygalactostatin] has an IC₅₀ of 340 ng/mL.
Work on `COc1ccc(CN2C[C@H](O)[C@@H](O)[C@@H](O)[C@H]2CO)cc1C` [Example 22, N-(3'-methyl-4'-methoxybenzyl)-1-deoxygalactostatin] yielded an IC₅₀ of 359 ng/mL.
